This is an account of results in patent publication US20240131168A1, “NAPHTHALENE RING-CONTAINING COMPOUND, PHARMACEUTICAL COMPOSITION CONTAINING SAME, AND USE THEREOF” (JIANGSU YAHONG MEDITECH CO., LTD., priority 2021, published 2024).

Common to all, as to format: cell-based
Assay [1] deals with MDA-MB-231. Description: CellTiter-Glo cell proliferation inhibition, MDA-MB-231. The conditions noted are these: Homo sapiens, 144 h, MDA-MB-231 (CTG), 6 days, starting concentration 10 μM; for inhibition at up to 10 µM: read-out: IH % max (maximum inhibition percentage). The text has this:
1. Cell line • (1) Breast cancer cell lines and their culture media: • MCF-7 (ATCC; Cat. No.: HTB-22), a Luminal A breast cancer cell; • TamR-MCF-7 (ATCC; Cat. No.: CRL-3435), a breast cancer cell; • MCF-7 ER^D538G: a Luminal A breast cancer cell obtained by constructing MCF-7 (ATCC; Cat. No.: HTB-22) using CRISPR-Cas9 gene editing technology; • MCF-7 ER^Y537S: a Luminal A breast cancer cell obtained by constructing MCF-7 (ATCC; Cat. No.: HTB-22) using CRISPR-Cas9 gene editing technology; • MDA-MB-231: (manufacturer: Nanjing CoBioer Biosciences Co., Ltd.), a triple-negative breast cancer cell; • MDA-MB-468: (manufacturer: Nanjing CoBioer Biosciences Co., Ltd.), a triple-negative breast cancer cell.
Herein, the culture medium of MCF-7, TamR-MCF-7, MCF-7 ER^D538G, and MCF-7 ER^Y537S was EMEM; • the culture medium of MDA-MB-231 and MDA-MB-468 was DMEM.
2. Reagents • Culture medium EMEM (Gibco, 1964507) • Culture medium DMEM (Gibco, 12430-054) • Fetal bovine serum (Gibco, 10091148) • Penicillin-streptomycin double antibody (Gibco, S110JV) • DPBS (Gibco, 14190-144) • CellTiter-Glo® assay kit (Promega, G7573) • Trypsin (0.25%) (Gibco, 25200-056) • DMSO (Sigma, D2650)
3. Instruments • Biosafety cabinet (AIRTECH, BSC-1300A II) • Automated cell counter (Life Technologies, countess II) • Multifunctional microplate reader (Biotek, H1FM) • Orbital shaker (Hangzhou Allsheng Instruments Co., Ltd., OS-100) • XLFIT 5.3 (Inforstack Shanghai Co., Ltd.)
For this test method, the following experiments were performed in a biosafety cabinet, with the specific steps as follows: • (1) Cells were inoculated in a 96-well plate. One day later, the previous culture medium was poured off, 5 mL of DPBS was added to wash the cells, and then DPBS was pipetted and discarded. An appropriate amount of trypsin was then added. The plate was digested in a 37° C., 5% CO2 cell incubator for about 2 to 5 minutes and then taken out. Anew corresponding culture medium was added, and pipetted up and down to resuspend the cells evenly. The cells were then counted using an automated cell counter. • (2) Each cell was inoculated in columns 1 to 11 of a 96-well plate (Corning, Cat. No.: 3610) at a density of 1,000 or 2,000 cells per well in 100 μL of culture medium, and 100 μL of the corresponding culture medium without cells was added to the wells in column 12. The plate was then placed in a 37° C., 5% CO2 incubator for 24 hours. • (3) The compound of the present disclosure and the control drug fulvestrant (Selleck; Cat. No.: S1191) were then 4-fold serially diluted to 10 dose points starting at 10 μM. 10 μL of the serially diluted compound was pipetted and added to 100 μL of cells in columns 1 to 10, and 10 μL of the corresponding culture medium containing 0.33 v % DMSO was added to both columns 11 and 12. The plate was incubated in a 37° C., 5% CO2 incubator for 6 days or 72 hours (Note: column 11 was used as a MAX well with cells but without compound; column 12 was used as a MIN well without cells […]). • (4) The cell viability detection reagent in the CellTiter-Glo® assay kit was then added to the 96-well plate at 50 μL per well according to the instructions, and shaken on an orbital shaker in the dark for 5 to 10 minutes. The cell viability was then measured using a multifunctional microplate reader. Finally, the inhibition of cell proliferation by the compound of the present disclosure was plotted by XLFIT software, and the IC50 value (half inhibitory concentration) and the IH % max (maximum inhibition percentage) of the compound of the present disclosure were calculated.
Compounds D64 to D69 were tested for MDA-MB-231 (CTG) and MDA-MB-468 (CTG) with an incubation time of 72 hours in the incubator.

For assay [2], the system named is MCF-7 ER^Y537S. Description: CellTiter-Glo cell proliferation inhibition, MCF-7 ER^Y537S. The conditions noted are these: Homo sapiens, MCF7, 144 h; MCF-7 ER^Y537S (CTG), 6 days, starting concentration 10 μM; read-out: IH % max (maximum inhibition percentage). The method in brief: (§1)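 MCF-7, TamR-MCF-7, and CRISPR-edited MCF-7 ER D538G or Y537S cells were seeded at 1,000 or 2,000 cells/well in EMEM and cultured 24 h. They were then exposed to a 4-fold, 10-point series (top 10 µM before addition to wells) for 6 days or 72 h at 37 °C. CellTiter-Glo luminescence gave IC50 and maximum % inhibition.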

The subject of assay [3] is MDA-MB-468. Description: CellTiter-Glo cell proliferation inhibition, MDA-MB-468. The conditions noted are these: Homo sapiens, 144 h, MDA-MB-468 (CTG), 6 days, starting concentration 10 μM; for inhibition at up to 10 µM: read-out: IH % max (maximum inhibition percentage).
The subject of assay [4] is MCF-7. Description: CellTiter-Glo cell proliferation inhibition, MCF-7 (Effect Example 2). The conditions noted are these: Homo sapiens, MCF7, 144 h, MCF-7 (CTG), 6 days, starting concentration 10 μM; for inhibition at up to 10 µM: read-out: IH % max (maximum inhibition percentage). The method in brief:
as §1

Assay [5] relates to MCF-7 ER^D538G. Description: CellTiter-Glo cell proliferation inhibition, MCF-7 ER^D538G. The conditions noted are these: Homo sapiens, MCF7, 144 h, MCF-7 ER^D538G (CTG), 6 days, starting concentration 10 μM; for inhibition at up to 10 µM: read-out: IH % max (maximum inhibition percentage). The procedure, abridged: as §1
Assay [6] concerns TamR-MCF-7. Description: CellTiter-Glo cell proliferation inhibition, TamR-MCF-7. The conditions noted are these: 144 h, TamR-MCF-7 (CTG), 6 days, starting concentration 10 μM; for inhibition at up to 10 µM: read-out: IH % max (maximum inhibition percentage). The procedure, abridged: as §1

In the case of `CCN(CCOc1ccc(Oc2c(-c3ccc(S(C)(=O)=O)cc3)ccc3cc(O)ccc23)cc1)C(=O)c1ccc(CCC2CCN(C3CCN(c4cccc5c4C(=O)N(C4CCC(=O)NC4=O)C5=O)CC3)CC2)cc1` (centres unmarked) [Compound D33, 4-(2-(1′-(2-(2,6-dioxopiperidin-3-yl)-1,3-dioxoisoindolin-4-yl)-[1,4′-bipiperidin]-4-yl)ethyl)-N-ethyl-N-(2-(4-((6-hydroxy-2-(4-(methylsulfonyl)phenyl)naphthalen-1-yl)oxy)phenoxy)ethyl)benzamide], the inhibition at up to 10 µM in assay [1] was 57%; in assay [2], 76%; in assay [3] it was 94%; in assay [4], 45%; in assay [5] it was 92%; in assay [6], 45%. For the same molecule, the IC50 in assay [5] was determined as 288 nM.
Consider `CCN(CCOCCOCCOc1ccc2c(c1)C(=O)N(C1CCC(=O)NC1=O)C2=O)CCOc1ccc(Oc2c(-c3ccc(S(C)(=O)=O)cc3)ccc3cc(O)ccc23)cc1` (centres unmarked) [Compound D24, 2-(2,6-dioxopiperidin-3-yl)-5-(2-(2-(2-(ethyl(2-(4-((6-hydroxy-2-(4-(methylsulfonyl)phenyl)naphthalen-1-yl)oxy)phenoxy)ethyl)amino)ethoxy)ethoxy)ethoxy)isoindoline-1,3-dione], for which the inhibition at up to 10 µM was 100% in assay [1]; 94% in assay [2]; 62% in assay [3]; 74% in assay [4]; 93% in assay [5]; 60% in assay [6]. Moreover, the IC50 in assay [5] was 448 nM.
For `CS(=O)(=O)c1ccc(-c2ccc3cc(O)ccc3c2Oc2ccc(OCCNCCCCCNc3cccc4c3C(=O)N(C3CCC(=O)NC3=O)C4=O)cc2)cc1` (centres unmarked) [Compound D60, 2-(2,6-dioxopiperidin-3-yl)-4-((5-((2-(4-((6-hydroxy-2-(4-(methylsulfonyl)phenyl)naphthalen-1-yl)oxy)phenoxy)ethyl)amino)pentyl)amino)isoindoline-1,3-dione], the inhibition at up to 10 µM in assay [1] worked out at 96%; in assay [2], 92%; in assay [3], 51%; in assay [4], 82%; in assay [5] it was 96%; in assay [6], 50%. Also, the IC50 amounted to 954 nM in assay [4] and 977 nM in assay [5].
As for `CS(=O)(=O)c1ccc(-c2ccc3cc(O)ccc3c2Oc2ccc(OCCN3CCN(c4ccc5c(c4)C(=O)N(C4CCC(=O)NC4=O)C5=O)CC3)cc2)cc1` (centres unmarked) [Compound D6, 2-(2,6-dioxopiperidin-3-yl)-5-(4-(2-(4-((6-hydroxy-2-(4-(methylsulfonyl)phenyl)naphthalen-1-yl)oxy)phenoxy)ethyl)piperazin-1-yl)isoindoline-1,3-dione], the IC50 in assay [1] was determined as 102 nM; in assay [3], 260 nM; in assay [4], 133 nM; in assay [5], 428 nM; in assay [6] it was 331 nM. In addition, the inhibition at up to 10 µM in assay [1] stood at 100%; in assay [2], 78%; in assay [3], 98%; in assay [4], 100%; in assay [5] it was 91%; in assay [6], 90%.
With `CN(CCOCCN1CCN(c2ccc3c(c2)CN(C2CCC(=O)NC2=O)C3=O)CC1)CCOc1ccc(Oc2c(-c3ccc(S(C)(=O)=O)cc3)ccc3cc(O)ccc23)cc1` (centres unmarked) [Compound D10, 3-(5-(4-(2-(2-((2-(4-((6-hydroxy-2-(4-(methylsulfonyl)phenyl)naphthalen-1-yl)oxy)phenoxy)ethyl)methylamino)ethoxy)ethyl)piperazin-1-yl)-1-oxoisoindolin-2-yl)piperidine-2,6-dione], the inhibition at up to 10 µM in assay [1] was determined as 38%; in assay [2], 54%; in assay [3] it was 68%; in assay [4], 40%; in assay [5], 67%; in assay [6], 36%.
For the molecule `CCN(CCOCCOCCN1CCN(c2ccc3c(c2)C(=O)N(C2CCC(=O)NC2=O)C3)CC1)CCOc1ccc(Oc2c(-c3ccc(S(C)(=O)=O)cc3)ccc3cc(O)ccc23)cc1` (centres unmarked) [Compound D49], the inhibition at up to 10 µM came out at 97% in assay [1]; 86% in assay [2]; 99% in assay [3]; 42% in assay [4]; 96% in assay [5]; 42% in assay [6]. The molecule further had an IC50 in assay [5] of 202 nM.
Turning to `CCN(CCOCCOc1ccc2c(c1)C(=O)N(C1CCC(=O)NC1=O)C2=O)CCOc1ccc(Oc2c(-c3ccc(S(C)(=O)=O)cc3)ccc3cc(O)ccc23)cc1` (centres unmarked) [Compound D23, 2-(2,6-dioxopiperidin-3-yl)-5-(2-(2-(ethyl(2-(4-((6-hydroxy-2-(4-(methylsulfonyl)phenyl)naphthalen-1-yl)oxy)phenoxy)ethyl)amino)ethoxy)ethoxy)isoindoline-1,3-dione], the inhibition at up to 10 µM is 100% in assay [1]; 96% in assay [2]; 79% in assay [3]; 73% in assay [4]; 94% in assay [5]; 64% in assay [6]. The molecule further gave a half-inhibitory concentration (IC50) in assay [5] of 230 nM.
